Molecular target: T1, recombinant full-length human prolyl endopeptidase (PREP) (Homo sapiens, UniProt P48147)
T1 construct: To recombinant full-length human prolyl endopeptidase (PREP, R&D-Systems, 4308-SE); purchased R&D-Systems 4308-SE
T1 sequence (P48147 1-710): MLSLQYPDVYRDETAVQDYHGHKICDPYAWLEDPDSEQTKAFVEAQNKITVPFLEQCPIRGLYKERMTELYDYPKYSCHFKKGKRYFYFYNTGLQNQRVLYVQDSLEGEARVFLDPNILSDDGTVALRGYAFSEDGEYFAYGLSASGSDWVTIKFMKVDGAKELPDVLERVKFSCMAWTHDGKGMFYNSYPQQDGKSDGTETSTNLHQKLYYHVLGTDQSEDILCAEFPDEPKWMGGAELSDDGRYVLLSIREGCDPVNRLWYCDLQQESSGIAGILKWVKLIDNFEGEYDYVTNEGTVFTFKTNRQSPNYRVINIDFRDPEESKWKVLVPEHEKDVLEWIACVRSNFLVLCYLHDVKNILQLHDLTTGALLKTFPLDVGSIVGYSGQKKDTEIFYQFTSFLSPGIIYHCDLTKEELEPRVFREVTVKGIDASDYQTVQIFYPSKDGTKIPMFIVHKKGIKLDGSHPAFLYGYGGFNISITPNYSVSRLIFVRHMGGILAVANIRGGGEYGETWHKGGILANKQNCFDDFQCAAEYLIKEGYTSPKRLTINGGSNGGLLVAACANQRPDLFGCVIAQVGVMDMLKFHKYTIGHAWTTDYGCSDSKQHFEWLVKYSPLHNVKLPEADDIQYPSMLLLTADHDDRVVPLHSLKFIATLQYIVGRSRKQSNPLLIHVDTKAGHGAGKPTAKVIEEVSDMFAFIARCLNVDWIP
Test: Biochemical human prolyl endopeptidase (PREP) assay with fluorescently labelled substrate
Conditions: substrate Z-Gly-Pro-AMC 50 μM, 32° C., 60 min; some as mean values from multiple independent determinations
How it was run: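 0.4 nM (final, example) recombinant PREP in pH 7.5 Tris buffer with EDTA, GSH, BSA and Brij-35; compounds at 1 nM to 30 μM. Reaction started with 50 μM Z-Gly-Pro-AMC and followed by fluorescence (ex 360/em 465 nm) at 32° C for 60 min. IC50 interpolated from percent activity based on initial slopes.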

Structure (SMILES)	IC50 [nM]
O=C([C@@H]1CCCc2nn(Cc3ccc(Cl)nc3)c(=O)n21)N1CCC2CC21 (single isomer, unassigned) [Example 198]	1.03
O=C([C@@H]1CCCc2nn(Cc3ccc(C(F)(F)F)nc3)c(=O)n21)N1CCC2CC21 (single isomer, unassigned) [Example 200]	455
O=C([C@@H]1CCCc2nn(Cc3ccc(C(F)(F)F)nc3)c(=O)n21)N1CCC2CC21 (single isomer, unassigned) [Example 201]	5.45
O=C([C@@H]1CCCc2nn(Cc3ccc(F)c(Cl)c3)c(=O)n21)N1CCC2CC21 (single isomer, unassigned) [Example 202]	19
O=C([C@@H]1CCCc2nn(Cc3ccc(F)c(Cl)c3)c(=O)n21)N1CCC2CC21 (single isomer, unassigned) [Example 203]	0.82
CC(c1ccc(C(F)(F)F)nc1)n1nc2n(c1=O)[C@H](C(=O)N1CC[C@H](F)C1)CCC2 (single isomer, unassigned) [Example 216]	0.56
CC(c1ccc(C(F)(F)F)nc1)n1nc2n(c1=O)[C@H](C(=O)N1CC[C@H](F)C1)CCC2 (single isomer, unassigned) [Example 217]	1.2
CC(c1ccc(C(F)(F)F)nc1)n1nc2n(c1=O)[C@H](C(=O)N1C[C@@H](F)[C@@H](F)C1)CCC2 (single isomer, unassigned) [Example 218]	3.3
CC(c1ccc(C(F)(F)F)nc1)n1nc2n(c1=O)[C@H](C(=O)N1C[C@@H](F)[C@@H](F)C1)CCC2 (single isomer, unassigned) [Example 219]	7.3
CC1CCC(C(=O)N2CC[C@H](F)C2)n2c1nn(Cc1ccc(C(F)(F)F)nc1)c2=O (single isomer, unassigned) [Example 221]	980
CC1CCC(C(=O)N2CC[C@H](F)C2)n2c1nn(Cc1ccc(C(F)(F)F)nc1)c2=O (single isomer, unassigned) [Example 222]	1.1
Cc1ccc(Cn2nc3n(c2=O)C(C(=O)N2CCCC2)CC(C(F)(F)F)C3)cc1 (single isomer, unassigned) [Example 225, (5RS,7RS)-2-(4-Methylbenzyl)-5-(pyrrolidin-1-ylcarbonyl)-7-(trifluoromethyl)-5,6,7,8-tetrahydro[1,2,4]triazolo[4,3-a]pyridin-3(2H)-one]	0.23
Cc1ccc(Cn2nc3n(c2=O)C(C(=O)N2CCCC2)CC(C(F)(F)F)C3)cc1 (single isomer, unassigned) [Example 226, (5RS,7RS)-2-(4-Methylbenzyl)-5-(pyrrolidin-1-ylcarbonyl)-7-(trifluoromethyl)-5,6,7,8-tetrahydro[1,2,4]triazolo[4,3-a]pyridin-3(2H)-one]	3.6
O=C(C1CC(C(F)(F)F)Cc2nn(Cc3ccc(Cl)nc3)c(=O)n21)N1CCCC1 (single isomer, unassigned) [Example 227, (5RS,7RS)-2-[(6-Chloropyridin-3-yl)methyl]-5-(pyrrolidin-1-ylcarbonyl)-7-(trifluoromethyl)-5,6,7,8-tetrahydro[1,2,4]triazolo[4,3-a]pyridin-3(2H)-one]	24
O=C(C1CC(C(F)(F)F)Cc2nn(Cc3ccc(Cl)nc3)c(=O)n21)N1CCCC1 (single isomer, unassigned) [Example 228, (5RS,7RS)-2-[(6-Chloropyridin-3-yl)methyl]-5-(pyrrolidin-1-ylcarbonyl)-7-(trifluoromethyl)-5,6,7,8-tetrahydro[1,2,4]triazolo[4,3-a]pyridin-3(2H)-one]	2.2
O=C(C1CC(C(F)(F)F)Cc2nn(Cc3ccc(Cl)nc3)c(=O)n21)N1CCCC1 (single isomer, unassigned) [Example 229, (5RS,7RS)-2-[(6-Chloropyridin-3-yl)methyl]-5-(pyrrolidin-1-ylcarbonyl)-7-(trifluoromethyl)-5,6,7,8-tetrahydro[1,2,4]triazolo[4,3-a]pyridin-3(2H)-one]	0.34
O=C(C1CC(C(F)(F)F)Cc2nn(Cc3ccc(Cl)nc3)c(=O)n21)N1CCC(F)(F)C1 (single isomer, unassigned) [Example 231, (5RS,7RS)-2-[(6-Chloropyridin-3-yl)methyl]-5-[(3,3-difluoropyrrolidin-1-yl)carbonyl]-7-(trifluoromethyl)-5,6,7,8-tetrahydro[1,2,4]triazolo[4,3-a]pyridin-3(2H)-one]	48
O=C(C1CC(C(F)(F)F)Cc2nn(Cc3ccc(Cl)nc3)c(=O)n21)N1CCC(F)(F)C1 (single isomer, unassigned) [Example 232, (5RS,7RS)-2-[(6-Chloropyridin-3-yl)methyl]-5-[(3,3-difluoropyrrolidin-1-yl)carbonyl]-7-(trifluoromethyl)-5,6,7,8-tetrahydro[1,2,4]triazolo[4,3-a]pyridin-3(2H)-one]	400

Further lines, results first:

IC50 [nM]	Structure (SMILES)
120	O=C(C1CC(C(F)(F)F)Cc2nn(Cc3ccc(C(F)(F)F)nc3)c(=O)n21)N1CC(O)C1 (single isomer, unassigned) [Example 234, (5RS,7RS)-5-[(3-Hydroxyazetidin-1-yl)carbonyl]-7-(trifluoromethyl)-2-{[6-(trifluoromethyl)pyridin-3-yl]methyl}-5,6,7,8-tetrahydro[1,2,4]triazolo[4,3-a]pyridin-3(2H)-one]
0.94	O=C([C@@H]1C[C@@H](C(F)(F)F)Cc2nn(Cc3ccc(C(F)(F)F)nc3)c(=O)n21)N1CC[C@H](F)C1 (single isomer, unassigned) [Example 237]
73	O=C(C1CC(C(F)(F)F)Cc2nn(Cc3ccc(Cl)nc3)c(=O)n21)N1CC(F)C1 (single isomer, unassigned) [Example 238, (5RS,7RS)-2-[(6-Chloropyridin-3-yl)methyl]-5-[(3-fluoroazetidin-1-yl)carbonyl]-7-(trifluoromethyl)-5,6,7,8-tetrahydro[1,2,4]triazolo[4,3-a]pyridin-3(2H)-one]
11.2	O=C(C1CC(C(F)(F)F)Cc2nn(Cc3ccc(Cl)nc3)c(=O)n21)N1CC(F)C1 (single isomer, unassigned) [Example 239, (5RS,7RS)-2-[(6-Chloropyridin-3-yl)methyl]-5-[(3-fluoroazetidin-1-yl)carbonyl]-7-(trifluoromethyl)-5,6,7,8-tetrahydro[1,2,4]triazolo[4,3-a]pyridin-3(2H)-one]
4.2	O=C(C1CC(C(F)(F)F)Cc2nn(Cc3ccc(Cl)nc3)c(=O)n21)N1CC(F)C1 (single isomer, unassigned) [Example 240, (5RS,7RS)-2-[(6-Chloropyridin-3-yl)methyl]-5-[(3-fluoroazetidin-1-yl)carbonyl]-7-(trifluoromethyl)-5,6,7,8-tetrahydro[1,2,4]triazolo[4,3-a]pyridin-3(2H)-one]
0.623	O=C(C1CC(C(F)(F)F)Cc2nn(Cc3ccc(Cl)nc3)c(=O)n21)N1CC[C@H](F)C1 (single isomer, unassigned) [Example 243]
11	O=C(C1CC(C(F)(F)F)Cc2nn(Cc3ccc(Cl)nc3)c(=O)n21)N1CC[C@H](F)C1 (single isomer, unassigned) [Example 244]
1.3	O=C(C1CC(C(F)(F)F)Cc2nn(Cc3ccc(Cl)nc3)c(=O)n21)N1CC[C@@H](F)C1 (single isomer, unassigned) [Example 246]
910	O=C(C1CC(C(F)(F)F)Cc2nn(Cc3ccc(Cl)nc3)c(=O)n21)N1CC[C@@H](F)C1 (single isomer, unassigned) [Example 247]
12	O=C(C1CC(C(F)(F)F)Cc2nn(Cc3ccc(Cl)nc3)c(=O)n21)N1C[C@@H](F)[C@@H](F)C1 (single isomer, unassigned) [Example 248]
0.83	O=C(C1CC(C(F)(F)F)Cc2nn(Cc3ccc(Cl)nc3)c(=O)n21)N1C[C@@H](F)[C@@H](F)C1 (single isomer, unassigned) [Example 249]
0.92	O=C(C1CC(C(F)(F)F)Cc2nn(Cc3ccc(Cl)nc3)c(=O)n21)N1C[C@@H](F)[C@@H](F)C1 (single isomer, unassigned) [Example 250]
3.1	O=C(C1CC(C(F)(F)F)Cc2nn(Cc3ccnc(C(F)(F)F)c3F)c(=O)n21)N1CCC(F)(F)C1 (single isomer, unassigned) [Example 252, (5RS,7RS)-5-[(3,3-Difluoropyrrolidin-1-yl)carbonyl]-2-{[3-fluoro-2-(trifluoromethyl)pyridin-4-yl]methyl}-7-(trifluoromethyl)-5,6,7,8-tetrahydro[1,2,4]triazolo[4,3-a]pyridin-3(2H)-one]
